# Test results: BindingDB's records for doi:10.1124/jpet.300.3.1122 (Sanofi-Synthelabo Recherche, 2002)
# How the values were obtained:
# Vasopressin V1a receptor = Vasopressin V1a receptor (Rattus norvegicus, UniProt P30560)
# Vasopressin V2 receptor = Vasopressin V2 receptor (Rattus norvegicus, UniProt Q00788)
# Vasopressin V1b receptor = target: T1, Vasopressin V1b receptor (Bos taurus, UniProt F1ME85)
# T1 sequence (F1ME85 whole entry): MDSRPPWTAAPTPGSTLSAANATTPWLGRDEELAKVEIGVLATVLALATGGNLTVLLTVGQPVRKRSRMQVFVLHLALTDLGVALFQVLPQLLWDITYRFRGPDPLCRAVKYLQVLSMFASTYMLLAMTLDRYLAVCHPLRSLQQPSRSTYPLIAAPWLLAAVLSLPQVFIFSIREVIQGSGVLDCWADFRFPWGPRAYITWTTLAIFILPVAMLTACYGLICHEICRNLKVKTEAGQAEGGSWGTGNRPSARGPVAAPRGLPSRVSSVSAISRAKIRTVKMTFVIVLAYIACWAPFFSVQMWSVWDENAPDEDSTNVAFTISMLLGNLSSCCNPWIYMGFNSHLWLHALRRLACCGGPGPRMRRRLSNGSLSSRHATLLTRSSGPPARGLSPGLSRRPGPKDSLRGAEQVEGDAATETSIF
# Oxytocin receptor = target: T2, Oxytocin receptor (Rattus norvegicus, UniProt P70536)
# T2 sequence (P70536 whole entry): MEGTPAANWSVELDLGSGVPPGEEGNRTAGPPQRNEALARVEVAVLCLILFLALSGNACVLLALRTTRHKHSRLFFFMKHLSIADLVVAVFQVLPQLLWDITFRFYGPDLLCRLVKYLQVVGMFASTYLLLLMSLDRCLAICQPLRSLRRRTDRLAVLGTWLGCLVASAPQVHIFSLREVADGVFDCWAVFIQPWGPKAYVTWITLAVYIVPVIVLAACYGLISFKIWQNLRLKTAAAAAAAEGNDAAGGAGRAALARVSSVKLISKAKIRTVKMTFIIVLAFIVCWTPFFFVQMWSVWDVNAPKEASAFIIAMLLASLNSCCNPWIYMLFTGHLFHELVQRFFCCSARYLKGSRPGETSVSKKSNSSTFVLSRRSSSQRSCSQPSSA
# Chain of Vasopressin V1a receptor (P30560 whole entry): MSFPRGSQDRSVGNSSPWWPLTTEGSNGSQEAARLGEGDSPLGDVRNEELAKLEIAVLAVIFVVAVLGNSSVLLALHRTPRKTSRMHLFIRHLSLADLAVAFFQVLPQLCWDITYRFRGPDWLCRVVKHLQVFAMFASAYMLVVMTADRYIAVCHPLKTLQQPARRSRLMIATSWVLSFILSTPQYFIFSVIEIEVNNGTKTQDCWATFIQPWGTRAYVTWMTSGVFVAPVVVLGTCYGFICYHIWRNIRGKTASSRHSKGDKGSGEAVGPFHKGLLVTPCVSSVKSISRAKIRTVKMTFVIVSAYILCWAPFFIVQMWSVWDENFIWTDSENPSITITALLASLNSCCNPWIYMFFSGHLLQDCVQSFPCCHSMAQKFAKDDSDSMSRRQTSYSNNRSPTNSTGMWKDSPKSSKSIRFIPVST
# Chain of Vasopressin V2 receptor (Q00788 whole entry): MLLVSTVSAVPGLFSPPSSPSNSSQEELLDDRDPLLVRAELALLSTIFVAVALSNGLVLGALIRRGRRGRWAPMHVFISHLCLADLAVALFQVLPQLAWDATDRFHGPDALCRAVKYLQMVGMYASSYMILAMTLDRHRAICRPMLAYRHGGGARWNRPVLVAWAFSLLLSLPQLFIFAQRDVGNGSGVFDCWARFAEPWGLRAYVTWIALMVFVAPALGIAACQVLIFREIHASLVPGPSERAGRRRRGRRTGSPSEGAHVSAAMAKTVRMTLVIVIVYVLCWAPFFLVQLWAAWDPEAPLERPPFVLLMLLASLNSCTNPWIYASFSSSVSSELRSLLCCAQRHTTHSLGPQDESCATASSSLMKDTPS
smiles,measurement,setting,value
COc1ccc(S(=O)(=O)N2C(=O)[C@@](c3ccccc3OC)(N3C[C@H](O)C[C@H]3C(=O)N(C)C)c3cc(Cl)ccc32)c(OC)c1 [SSR149415],Ki,Vasopressin V1a receptor,1050 nM
same,Ki,Vasopressin V2 receptor,2900 nM
same,Ki,Vasopressin V1b receptor,2.7 nM
same,Ki,Oxytocin receptor,270 nM
